Laboratory results reported in US20230416210A1, “METHODS OF MAKING A PPAR-DELTA AGONIST” (Reneo Pharmaceuticals, Inc., priority 2020, published 2023).

Tests used:
[1] = target: T1, LXRα (Homo sapiens, UniProt Q13133); experiment: Activation of human cells expressing nuclear receptors; type: cell-based
T1 sequence (Q13133 1-447): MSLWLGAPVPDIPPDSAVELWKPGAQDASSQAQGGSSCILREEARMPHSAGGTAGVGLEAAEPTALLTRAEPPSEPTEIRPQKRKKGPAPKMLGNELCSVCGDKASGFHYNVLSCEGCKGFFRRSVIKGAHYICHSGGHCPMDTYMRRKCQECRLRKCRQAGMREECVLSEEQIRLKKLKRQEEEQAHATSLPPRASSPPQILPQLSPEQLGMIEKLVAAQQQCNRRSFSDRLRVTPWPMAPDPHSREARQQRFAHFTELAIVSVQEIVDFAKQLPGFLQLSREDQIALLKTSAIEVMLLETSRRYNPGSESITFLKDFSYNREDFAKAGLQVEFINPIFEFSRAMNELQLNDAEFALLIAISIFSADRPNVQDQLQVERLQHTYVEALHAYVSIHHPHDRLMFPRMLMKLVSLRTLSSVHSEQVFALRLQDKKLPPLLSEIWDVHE

[2] = system: RXR; experiment: as above; type: cell-based
[3] = target: T2, LXRβ (Homo sapiens, UniProt P55055); experiment: as above; type: cell-based
T2 sequence (P55055 1-460): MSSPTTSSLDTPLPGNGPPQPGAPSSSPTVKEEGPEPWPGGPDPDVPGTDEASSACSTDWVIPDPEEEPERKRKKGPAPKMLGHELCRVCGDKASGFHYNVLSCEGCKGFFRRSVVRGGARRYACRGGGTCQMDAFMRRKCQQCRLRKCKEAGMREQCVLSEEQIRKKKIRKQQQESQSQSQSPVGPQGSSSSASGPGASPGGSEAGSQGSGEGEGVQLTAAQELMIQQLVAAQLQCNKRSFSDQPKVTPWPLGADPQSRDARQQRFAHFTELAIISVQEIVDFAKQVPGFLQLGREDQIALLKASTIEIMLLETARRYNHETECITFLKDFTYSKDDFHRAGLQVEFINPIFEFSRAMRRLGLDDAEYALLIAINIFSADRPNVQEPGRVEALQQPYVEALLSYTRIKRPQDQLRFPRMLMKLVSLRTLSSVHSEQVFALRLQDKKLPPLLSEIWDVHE

[4] = system: Angiopoietin-like 4 (ANGPTL4); experiment: In vivo expression of PPAR regulated target gene in rat muscle
[5] = Clinical studies, safety and tolerability; type: in vivo, human
[6] = target: T3, FXR (Homo sapiens, UniProt Q96RI1); experiment: Activation of human cells expressing nuclear receptors; type: cell-based
T3 sequence (Q96RI1 1-486): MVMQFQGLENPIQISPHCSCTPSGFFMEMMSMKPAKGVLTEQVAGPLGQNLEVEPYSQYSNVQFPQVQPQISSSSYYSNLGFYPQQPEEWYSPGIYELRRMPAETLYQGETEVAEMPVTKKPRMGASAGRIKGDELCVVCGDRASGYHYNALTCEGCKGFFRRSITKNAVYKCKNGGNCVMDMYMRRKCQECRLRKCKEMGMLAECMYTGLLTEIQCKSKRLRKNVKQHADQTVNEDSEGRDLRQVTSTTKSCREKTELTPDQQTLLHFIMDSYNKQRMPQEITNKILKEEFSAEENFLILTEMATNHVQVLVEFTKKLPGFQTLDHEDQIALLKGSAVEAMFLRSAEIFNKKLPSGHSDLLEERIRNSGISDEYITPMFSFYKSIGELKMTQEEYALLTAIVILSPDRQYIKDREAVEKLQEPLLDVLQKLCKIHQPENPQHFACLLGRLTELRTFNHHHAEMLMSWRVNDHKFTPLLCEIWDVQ

[7] = target: T4, human PPARδ (Homo sapiens, UniProt Q03181); experiment: PPAR agonist activity in human cell lines expressing PPAR isotypes; type: cell-based
T4 sequence (Q03181 1-441): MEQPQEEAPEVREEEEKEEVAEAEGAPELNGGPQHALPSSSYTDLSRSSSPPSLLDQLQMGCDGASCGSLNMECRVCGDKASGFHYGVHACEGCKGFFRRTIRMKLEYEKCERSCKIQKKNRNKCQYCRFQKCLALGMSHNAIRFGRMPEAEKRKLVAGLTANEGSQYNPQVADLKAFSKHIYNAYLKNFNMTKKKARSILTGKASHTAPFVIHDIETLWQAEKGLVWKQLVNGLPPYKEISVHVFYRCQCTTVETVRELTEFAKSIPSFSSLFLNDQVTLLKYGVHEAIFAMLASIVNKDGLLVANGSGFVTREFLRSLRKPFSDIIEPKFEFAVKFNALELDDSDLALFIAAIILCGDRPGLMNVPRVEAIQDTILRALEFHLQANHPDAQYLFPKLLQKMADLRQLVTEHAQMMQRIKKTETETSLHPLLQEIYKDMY
Protocol: (§1) Compound I is a PPARδ agonist that is useful in the methods of treatment described herein. In human cell lines expressing all three peroxisome proliferator-activated receptor (PPAR) isotypes, Compound I is a potent (EC50<100 nM) and selective human PPARδ agonist, with minor activity on PPARα (EC50>10 μM) and PPARγ (EC50>10 μM).

[8] = target: T5, PPARγ (Homo sapiens, UniProt P37231); experiment: as above; type: cell-based
T5 sequence (P37231 1-505): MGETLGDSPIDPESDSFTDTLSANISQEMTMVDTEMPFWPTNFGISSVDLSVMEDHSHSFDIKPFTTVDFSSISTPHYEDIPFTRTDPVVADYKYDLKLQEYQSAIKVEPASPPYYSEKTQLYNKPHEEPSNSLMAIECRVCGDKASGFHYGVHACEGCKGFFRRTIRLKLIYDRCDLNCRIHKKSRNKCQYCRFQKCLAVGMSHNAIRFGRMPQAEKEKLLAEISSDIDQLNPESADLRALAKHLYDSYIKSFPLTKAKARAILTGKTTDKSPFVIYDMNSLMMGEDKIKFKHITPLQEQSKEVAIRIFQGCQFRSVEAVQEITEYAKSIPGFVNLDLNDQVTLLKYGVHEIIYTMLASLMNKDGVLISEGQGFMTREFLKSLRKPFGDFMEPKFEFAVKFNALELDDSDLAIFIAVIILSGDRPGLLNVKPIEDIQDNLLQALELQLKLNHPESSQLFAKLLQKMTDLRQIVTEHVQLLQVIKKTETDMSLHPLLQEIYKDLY
Protocol: as §1

[9] = target: T6, PPARα (Homo sapiens, UniProt Q07869); experiment: as above; type: cell-based
T6 sequence (Q07869 1-468): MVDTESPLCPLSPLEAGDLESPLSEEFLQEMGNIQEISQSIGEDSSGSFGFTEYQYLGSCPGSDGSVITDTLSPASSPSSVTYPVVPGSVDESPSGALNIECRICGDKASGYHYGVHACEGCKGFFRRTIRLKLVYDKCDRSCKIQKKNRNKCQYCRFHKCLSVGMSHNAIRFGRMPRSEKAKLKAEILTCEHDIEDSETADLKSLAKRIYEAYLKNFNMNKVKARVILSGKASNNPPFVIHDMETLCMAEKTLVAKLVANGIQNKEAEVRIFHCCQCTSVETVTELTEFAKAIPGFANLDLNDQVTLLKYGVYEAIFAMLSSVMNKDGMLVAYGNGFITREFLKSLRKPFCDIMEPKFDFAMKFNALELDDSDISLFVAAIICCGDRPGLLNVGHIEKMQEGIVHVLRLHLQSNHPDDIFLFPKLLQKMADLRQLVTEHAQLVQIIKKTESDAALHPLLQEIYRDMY
Protocol: as §1

[10] = system: PPARδ regulated genes (CPT1b, PGC-1α); experiment: In vivo expression of PPARδ regulated genes in mice muscle
[11] = target: T7, PPARδ (Mus musculus, UniProt P35396); settings: mice, cited from earlier work
T7 construct: host or cells: mice (skeletal muscle), in vivo
T7 sequence (P35396 1-440): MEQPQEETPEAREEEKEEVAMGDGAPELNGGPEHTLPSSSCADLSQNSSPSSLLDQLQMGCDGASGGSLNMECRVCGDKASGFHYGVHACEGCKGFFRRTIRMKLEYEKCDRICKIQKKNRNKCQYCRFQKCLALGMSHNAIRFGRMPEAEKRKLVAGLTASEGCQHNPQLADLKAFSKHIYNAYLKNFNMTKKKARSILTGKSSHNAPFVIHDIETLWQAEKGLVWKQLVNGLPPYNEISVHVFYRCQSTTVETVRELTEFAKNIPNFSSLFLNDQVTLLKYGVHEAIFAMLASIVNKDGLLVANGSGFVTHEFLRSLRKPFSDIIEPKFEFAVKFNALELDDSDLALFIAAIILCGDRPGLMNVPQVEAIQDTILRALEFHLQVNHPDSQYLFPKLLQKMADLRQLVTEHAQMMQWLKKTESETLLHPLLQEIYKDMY

[12] = human cell lines expressing all three PPAR isotypes
[13] = in combination with exercise, 4 weeks

activation of human cells expressing LXRα [1] | activation of human cells expressing LXRβ [3] | activation of human cells expressing FXR [6] | type of agonism on PPARδ [7] | EC50 [7, 12] [nM] | selectivity for PPARδ over PPARγ [8] [fold] | type of agonism on PPARγ [8] | EC50 [8, 12] [µM] | selectivity for PPARδ over PPARα [9] [fold] | type of agonism on PPARα [9] | EC50 [9, 12] [µM] | Compound | activation of human cells expressing RXR [2] | expression of ANGPTL4 [4] | incidence of adverse events (AEs) versus placebo [5] | serious adverse events (SAEs) [5] | safety and tolerability ([5]; Compound I or a pharmaceutically acceptable salt, solvate or hydrate) | expression of PPARδ regulated genes CPT1b (beta-oxidation of long chain fatty acids) and PGC-1α (mitochondrial biogenesis) [10] | energy substrate usage ([11]; 8 weeks) | muscle fibers, mitochondrial biogenesis [11, 13] | physical performance [11, 13]
did not result in activation | did not result in activation | did not result in activation | full PPARδ agonist | < 100 | 400 | only partial agonist activity | > 10 | 100 | only partial agonist activity | > 10 | Cc1cc(OC/C=C(/c2ccc(F)cc2)c2ccc(C#CCN3CCOCC3)cc2)ccc1OCC(=O)O [Compound I, (E)-2-(4-((3-(4-fluorophenyl)-3-(4-(3-morpholinoprop-1-yn-1-yl)phenyl)allyl)oxy)-2-methylphenoxy)acetic acid] | did not result in activation | increased the expression | similar | No serious adverse events (SAEs) were reported | safe and well tolerated | altered the expression patterns |  |  | 
 |  |  |  |  |  |  |  |  |  |  | Cc1cc(SCc2sc(-c3ccc(C(F)(F)F)cc3)nc2C)ccc1OCC(=O)O [GW1516] |  |  |  |  |  |  | clear shift in energy substrate usage from glucose to fatty acid oxidation | synergistically induced fatigue-resistant oxidative muscle fibers and mitochondrial biogenesis | enhanced physical performance
